Several values for one entry are separate records, joined by “and”; a condition that tells them apart may be missing. Equal values may be shown once. Inconclusive results and toxic doses are left out. The calls were made as follows: active = survival T/C of 150% or more; inactive = T/C below 125% in these data.
Tested on: P388 leukemia ip, CD2F1 mice, survival T/C
Test: NCI In Vivo Anticancer Drug Screen. Data for tumor model P388 Leukemia (intraperitoneal) in CD2F1 (CDF1) mice
Settings: endpoint: median survival time, higher = longer survival
Outline: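 Mice carrying the transplanted tumor received test compound or vehicle. Survival was recorded in each group, and the value is the treated-group measurement divided by that of the vehicle-treated control group.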

[1] = dose: 50.0 mg/kg/injection, schedule: Q01DX009 (ip), vehicle: saline with Tween-80
[2] = dose: 100.0 mg/kg/injection, schedule: Q01DX009 (ip), vehicle: saline with Tween-80
[3] = dose: 200.0 mg/kg/injection, schedule: Q01DX009 (ip), vehicle: saline with Tween-80
[4] = dose: 100.0 mg/kg/injection, schedule: Q04DX003 (ip), vehicle: Klucel (hydroxypropylcellulose) (HPC)
[5] = dose: 200.0 mg/kg/injection, schedule: Q04DX003 (ip), vehicle: Klucel (hydroxypropylcellulose) (HPC)
[6] = dose: 12.5 mg/kg/injection, schedule: Q01DX005 (ip), vehicle: saline
[7] = dose: 25.0 mg/kg/injection, schedule: Q01DX005 (ip), vehicle: saline
[8] = dose: 50.0 mg/kg/injection, schedule: Q01DX005 (ip), vehicle: saline
[9] = dose: 50.0 mg/kg/injection, schedule: Q01DX005 (ip), vehicle: Klucel (hydroxypropylcellulose) (HPC)
[10] = dose: 100.0 mg/kg/injection, schedule: Q01DX005 (ip), vehicle: Klucel (hydroxypropylcellulose) (HPC)
[11] = dose: 200.0 mg/kg/injection, schedule: Q01DX005 (ip), vehicle: Klucel (hydroxypropylcellulose) (HPC)
[12] = dose: 100.0 mg/kg/injection, schedule: Q01DX001 (ip), vehicle: saline
[13] = dose: 200.0 mg/kg/injection, schedule: Q01DX001 (ip), vehicle: saline
[14] = dose: 400.0 mg/kg/injection, schedule: Q01DX001 (ip), vehicle: saline
[15] = dose: 50.0 mg/kg/injection, schedule: Q01DX009 (ip), vehicle: Klucel (hydroxypropylcellulose) (HPC)
[16] = dose: 100.0 mg/kg/injection, schedule: Q01DX009 (ip), vehicle: Klucel (hydroxypropylcellulose) (HPC)
[17] = dose: 200.0 mg/kg/injection, schedule: Q01DX009 (ip), vehicle: Klucel (hydroxypropylcellulose) (HPC)
[18] = dose: 50.0 mg/kg/injection, schedule: Q01DX005 (ip), vehicle: saline with Tween-80
[19] = dose: 100.0 mg/kg/injection, schedule: Q01DX005 (ip), vehicle: saline with Tween-80
[20] = dose: 200.0 mg/kg/injection, schedule: Q01DX005 (ip), vehicle: saline with Tween-80
[21] = dose: 100.0 mg/kg/injection, schedule: Q01DX001 (ip), vehicle: saline with Tween-80
[22] = dose: 200.0 mg/kg/injection, schedule: Q01DX001 (ip), vehicle: saline with Tween-80
[23] = dose: 400.0 mg/kg/injection, schedule: Q01DX001 (ip), vehicle: saline with Tween-80

Measured: T/C

N#CCCSC(=S)C1CCCCC1=N (stereo not drawn)
inactive: dose: 50.0 mg/kg/injection, schedule: Q01DX009 (ip), vehicle: saline + alcohol 109 % of control | dose: 100.0 mg/kg/injection, schedule: Q01DX009 (ip), vehicle: saline + alcohol 111 % of control | dose: 200.0 mg/kg/injection, schedule: Q01DX009 (ip), vehicle: saline + alcohol 109 % of control

O=[N+]([O-])c1ccc(SC2=NCCN2Cc2ccccc2)c(Cl)c1
inactive: [1] 88 % of control | [2] 101 % of control | [3] 94 % of control

CC(=O)O[C@@H]1C[C@@](C)(C(=O)[C@H]2COC(=O)C2)[C@@H]2CC(=O)O[C@@H]3C[C@H]4[C@H](C)C[C@H](O)C(=O)[C@]4(C)[C@@H]1[C@]23C
inactive: dose: 3.0 mg/kg/injection, schedule: Q01DX009 (ip), vehicle: saline + alcohol 98 % of control | dose: 6.0 mg/kg/injection, schedule: Q01DX009 (ip), vehicle: saline + alcohol 116 % of control | dose: 12.0 mg/kg/injection, schedule: Q01DX009 (ip), vehicle: saline + alcohol 107 % of control | dose: 24.0 mg/kg/injection, schedule: Q01DX009 (ip), vehicle: saline + alcohol 100 % of control | dose: 48.0 mg/kg/injection, schedule: Q01DX009 (ip), vehicle: saline + alcohol 107 % of control

C=CCSc1nc2ccc(NCn3c(=S)sc4cc([N+](=O)[O-])ccc43)cc2s1
inactive: [4] 90 % of control | [5] 86 % of control

CN(C)c1ccc(/C=C/C(=O)c2nc3ccccc3[nH]2)cc1
inactive: [4] 100 % of control | [5] 100 % of control | dose: 400.0 mg/kg/injection, schedule: Q04DX003 (ip), vehicle: Klucel (hydroxypropylcellulose) (HPC) 86 % of control

CN(CCNN1CCCC1)Cc1ccccc1Cl
inactive: [6] 102 % of control | [7] 105 % of control | [8] 102 % of control and 108 % of control | dose: 100.0 mg/kg/injection, schedule: Q01DX005 (ip), vehicle: saline 103 % of control

CCCCN(CCCC)CCNc1ccc(C)c2sc3ccc([N+](=O)[O-])cc3c(=O)c12
inactive: [9] 100 % of control | [10] 99 % of control | [11] 100 % of control

Nc1snnc1C(=S)NC=S
inactive: [12] 102 % of control | [13] 105 % of control | [14] 100 % of control

O=C(O)CNO
inactive: [15] 101 % of control | [16] 105 % of control | [17] 104 % of control | dose: 400.0 mg/kg/injection, schedule: Q01DX009 (ip), vehicle: Klucel (hydroxypropylcellulose) (HPC) 110 % of control

COc1ccc(C2c3cc4c(cc3OC(C)(O)C2C)OCO4)cc1 (stereo not drawn)
inactive: dose: 60.0 mg/kg/injection, schedule: Q01DX005 (ip), vehicle: Klucel (hydroxypropylcellulose) (HPC) 95 % of control | dose: 120.0 mg/kg/injection, schedule: Q01DX005 (ip), vehicle: Klucel (hydroxypropylcellulose) (HPC) 98 % of control | dose: 240.0 mg/kg/injection, schedule: Q01DX005 (ip), vehicle: Klucel (hydroxypropylcellulose) (HPC) 93 % of control

O=C1NC(=O)C2(C(=O)c3cccc4cccc2c34)N1c1ccccc1 (stereo not drawn)
inactive: dose: 50.0 mg/kg/injection, schedule: Q01DX009 (ip), vehicle: distilled water + alcohol 94 % of control | dose: 100.0 mg/kg/injection, schedule: Q01DX009 (ip), vehicle: distilled water + alcohol 102 % of control | dose: 200.0 mg/kg/injection, schedule: Q01DX009 (ip), vehicle: distilled water + alcohol 100 % of control

CC12CC3CC(C)(C1)CC(C/C=N/NC(N)=O)(C3)C2
inactive: [15] 102 % of control | [16] 92 % of control | [17] 99 % of control

CCCCCCCCCCCCCCCCCCCCCCCCCCCCCCO
inactive: dose: 25.0 mg/kg/injection, schedule: Q01DX009 (ip), vehicle: saline with Tween-80 86 % of control | [1] 101 % of control | [2] 96 % of control | [3] 92 % of control

COC(=O)c1c(C)oc2ccccc2c1=O
inactive: [9] 101 % of control | [10] 103 % of control | [11] 103 % of control

C1=Cc2ccccc2C(c2ccccc2)S1 (stereo not drawn)
inactive: dose: 50.0 mg/kg/injection, schedule: Q01DX009 (ip), vehicle: saline 98 % of control | dose: 100.0 mg/kg/injection, schedule: Q01DX009 (ip), vehicle: saline 88 % of control | dose: 200.0 mg/kg/injection, schedule: Q01DX009 (ip), vehicle: saline 93 % of control | dose: 400.0 mg/kg/injection, schedule: Q01DX009 (ip), vehicle: saline 89 % of control

CN(CCCN(C)N=Nc1ccccc1C(=O)O)N=Nc1ccccc1C(=O)O
inactive: [2] 86 % of control | [3] 90 % of control

O=C(NCN1CCCCC1)c1ccccc1
inactive: dose: 25.0 mg/kg/injection, schedule: Q01DX005 (ip), vehicle: saline with Tween-80 93 % of control and 95 % of control | [18] 98 % of control and 101 % of control and 105 % of control | [19] 102 % of control and 104 % of control | [20] 102 % of control and 113 % of control

CCN1c2ccccc2S(=O)(=O)n2c(/C=C/c3ccc(OC)cc3)nnc21
inactive: [21] 90 % of control | [22] 88 % of control

O=C(O)Cc1cn2cc(Br)cc(Br)c2n1
inactive: [21] 109 % of control | [22] 97 % of control | [23] 98 % of control

CCOC(=O)CCC(C(=O)c1cccnc1)c1ccccn1 (stereo not drawn)
inactive: [12] 104 % of control | [13] 101 % of control | [14] 99 % of control

COc1cc2c(cc1O)C(C)Cc1cc3c(cc1N(C)CC2)OCO3 (stereo not drawn)
inactive: dose: 100.0 mg/kg/injection, schedule: Q04DX002 (ip), vehicle: saline 106 % of control | dose: 200.0 mg/kg/injection, schedule: Q04DX002 (ip), vehicle: saline 113 % of control | dose: 400.0 mg/kg/injection, schedule: Q04DX002 (ip), vehicle: saline 103 % of control

NCCCC(C(=O)O)N(C(=O)OCc1ccccc1)C(=O)OCc1ccccc1 (stereo not drawn)
inactive: [18] 97 % of control | [19] 101 % of control | [20] 90 % of control

C1CC[N-]CC1.C1CC[N-]CC1.C1CC[N-]CC1.[Cr+6].[N-]=C=S.[N-]=C=S.[N-]=C=S
inactive: dose: 100.0 mg/kg/injection, schedule: Q04DX002 (ip), vehicle: acetone 97 % of control | dose: 100.0 mg/kg/injection, schedule: Q04DX002 (ip), vehicle: distilled water + alcohol 99 % of control | dose: 200.0 mg/kg/injection, schedule: Q04DX002 (ip), vehicle: acetone 97 % of control

N#CC(=Nc1ccccc1)c1cccc(Br)c1
inactive: [15] 109 % of control | [16] 109 % of control | [17] 117 % of control

O=c1[nH]c(=O)n(C2OC(CO)C(O)C2O)cc1CC(F)(F)C(F)(F)F (stereo not drawn)
inactive: dose: 50.0 mg/kg/injection, schedule: Q01DX001 (ip), vehicle: saline with Tween-80 107 % of control | [21] 106 % of control | [22] 100 % of control | [23] 101 % of control

c1ccc2c(NCC3CCNCC3)c3ccccc3nc2c1
inactive: dose: 25.0 mg/kg/injection, schedule: Q04DX002 (ip), vehicle: saline with Tween-80 124 % of control | dose: 50.0 mg/kg/injection, schedule: Q04DX002 (ip), vehicle: saline with Tween-80 112 % of control

COCCOC(C)C(/C=N/N=C(N)N)=N/N=C(N)N (stereo not drawn)
inactive: [6] 101 % of control | [7] 103 % of control | [8] 99 % of control and 101 % of control

C=C(c1ccc(OC)cc1)c1cc(C(C)(C)C)c(O)c(C(C)(C)C)c1
inactive: dose: 50.0 mg/kg/injection, schedule: Q01DX005 (ip), vehicle: saline + Tween-80 + alcohol 101 % of control | dose: 100.0 mg/kg/injection, schedule: Q01DX005 (ip), vehicle: saline + Tween-80 + alcohol 97 % of control | dose: 200.0 mg/kg/injection, schedule: Q01DX005 (ip), vehicle: saline + Tween-80 + alcohol 100 % of control

— PubChem BioAssay AID330 (DTP/NCI, 2004)
